This assay concerns Epithelial cells. Kind of assay: Interaction of GFP-labelled complexes with cell membrane of epithelial cells (Example II-52, Table II-30). Type of assay: cell-based. The settings on record: GFP-labelled complex, epithelial cells pretreated 4 hours, n=3. Here is the method:
The fatty acids were combined with water-soluble small molecules to form a complex, which were labeled with GFP fluorescence to detect cell membrane fluorescence. […] After the cells were stably adhered, the water-soluble fatty acid complexes in the following table were added to the cell culture medium. […] The medium with the drug was pipetted and replaced with normal DMEM medium. […] The green fluorescence intensity was analyzed by imageJ (see Table II-30, n=3).

On to `CCCCC/C=C/C(=O)OCC1OC(O)C(O)C(O)C1O` (stereo not drawn) [Glucose-t-2-octenoic acid], for which the Mean fluorescence intensity by setting is: (0 Hours after medium replaced) 99.4 ± 3.6; (2 Hours after medium replaced) 92.5 ± 4.0; (4 Hours after medium replaced) 61.4 ± 4.2; (8 Hours after medium replaced) 42.3 ± 3.3; (12 Hours after medium replaced) 36.4 ± 4.3; (24 Hours after medium replaced) 32.4 ± 6.6.
As to `C=CCCCCCCCCC(=O)NCCCCC(N)C(=O)O` (stereo not drawn) [Lys-10-undecenoic acid], the Mean fluorescence intensity was determined as 135.6 ± 2.4 (0 Hours after medium replaced); 130.8 ± 6.7 (2 Hours after medium replaced); 118.2 ± 9.0 (4 Hours after medium replaced); 89.5 ± 4.4 (8 Hours after medium replaced); 58.6 ± 5.7 (12 Hours after medium replaced); 49.6 ± 0.5 (24 Hours after medium replaced).
Turning to `CCC=CCC=CCC=CCC=CCC=CCCCC(=O)NCCCCC(N)C(=O)O` (stereo not drawn) [Lys-EPA], the Mean fluorescence intensity runs as follows: (0 Hours after medium replaced) 123.3 ± 8.8; (2 Hours after medium replaced) 119.2 ± 3.7; (4 Hours after medium replaced) 109.4 ± 1.7; (8 Hours after medium replaced) 66.4 ± 4.7; (12 Hours after medium replaced) 39.4 ± 5.8; (24 Hours after medium replaced) 32.5 ± 4.5.
In the case of `CC=CC(=O)NCCCCC(N)C(=O)O` (stereo not drawn) [Lys-crotonic acid], the Mean fluorescence intensity (0 Hours after medium replaced) came to 119.3 ± 3.4; the Mean fluorescence intensity (2 Hours after medium replaced) amounted to 120.0 ± 6.6; the Mean fluorescence intensity (4 Hours after medium replaced) amounted to 98.3 ± 5.5; the Mean fluorescence intensity (8 Hours after medium replaced) amounted to 55.9 ± 6.7; the Mean fluorescence intensity (12 Hours after medium replaced) was 46.9 ± 3.6; the Mean fluorescence intensity (24 Hours after medium replaced) amounted to 40.4 ± 5.3.
Turning to `CCCCCCCC(=O)NCCCCC(N)C(=O)O` (stereo not drawn) [Lys-n-octanoic acid], the Mean fluorescence intensity (0 Hours after medium replaced) is given as 103.4 ± 3.1; the Mean fluorescence intensity (2 Hours after medium replaced) was 99.3 ± 7.9; the Mean fluorescence intensity (4 Hours after medium replaced) is on record as 92.4 ± 7.7; the Mean fluorescence intensity (8 Hours after medium replaced) came out at 45.4 ± 4.7; the Mean fluorescence intensity (12 Hours after medium replaced) is listed as 30.4 ± 7.5; the Mean fluorescence intensity (24 Hours after medium replaced) is recorded as 24.2 ± 8.5.
In the case of `NC(CCCCNC(=O)CCCCCCCCCCCC(=O)O)C(=O)O` (stereo not drawn) [Lys-tridecanedioic acid], the Mean fluorescence intensity runs as follows: (0 Hours after medium replaced) 134.4 ± 5.7; (2 Hours after medium replaced) 125.0 ± 6.9; (4 Hours after medium replaced) 113.9 ± 4.2; (8 Hours after medium replaced) 64.3 ± 1.6; (12 Hours after medium replaced) 48.4 ± 6.8; (24 Hours after medium replaced) 42.0 ± 2.6.
With `NC(COC(=O)CCCCCCCCCCCCCCCCCCCCC(=O)O)C(=O)O` (stereo not drawn) [Ser-docosanedioic acid], the Mean fluorescence intensity is, setting by setting: (0 Hours after medium replaced) 114.5 ± 3.3; (2 Hours after medium replaced) 101.4 ± 6.9; (4 Hours after medium replaced) 95.4 ± 5.5; (8 Hours after medium replaced) 74.4 ± 2.4; (12 Hours after medium replaced) 34.5 ± 5.5; (24 Hours after medium replaced) 20.4 ± 4.4.
In the case of `NC(COC(=O)CCCCCCCCCCC(=O)O)C(=O)O` (stereo not drawn) [Ser-dodecanedioic acid], the Mean fluorescence intensity runs as follows: (0 Hours after medium replaced) 127.3 ± 3.5; (2 Hours after medium replaced) 126.3 ± 5.2; (4 Hours after medium replaced) 118.3 ± 7.3; (8 Hours after medium replaced) 69.3 ± 8.4; (12 Hours after medium replaced) 59.3 ± 5.5; (24 Hours after medium replaced) 45.3 ± 1.6.
Regarding `NC(COC(=O)CCCCCCCCCCCCCCC(=O)O)C(=O)O` (stereo not drawn) [Ser-hexadecanedioic acid], the Mean fluorescence intensity is listed as 119.6 ± 9.4 (0 Hours after medium replaced); 116.2 ± 5.1 (2 Hours after medium replaced); 93.4 ± 5.3 (4 Hours after medium replaced); 63.9 ± 4.1 (8 Hours after medium replaced); 46.0 ± 3.6 (12 Hours after medium replaced); 37.6 ± 6.7 (24 Hours after medium replaced).
